Where two headings read alike, the source gives them in different places.
System: Acinetobacter baumannii ATCC17961
Test: Antimicrobial susceptibility testing: 90% growth inhibitory concentration (IC90) determination
Type: cell-based
Details: 90% growth inhibitory concentration against Acinetobacter baumannii ATCC17961, Iso-Sensitest broth, OD 600 nm over 16 h, read-out: ATCC 17961 IC90
In short: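 OD600 monitored each minute over 16 h at 35±2° C for bacteria (~5×10^5 CFU/mL final) in Iso-Sensitest medium with 10-point twofold compound series (e.g. 10-0.0195 μM final). Concentration giving 90% growth inhibition in log phase reported as IC90.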

[1] = Acinetobacter baumannii, ATCC17961, 16 h

IC90 [1]	Compound	IC90
682 nM	Cn1c(-c2cn(-c3ccc(NCCN)cn3)nc2C(F)(F)F)cnc1C(=O)Nc1ccc(C(=O)N2CCN(C(=O)C3CC[N+](C)(CC(=O)[O-])CC3)CC2)c(Cl)c1 (centres unmarked) [Example 201, 2-[4-[4-[4-[[5-[1-[5-(2-aminoethylamino)-2-pyridyl]-3-(trifluoromethyl)pyrazol-4-yl]-1-methyl-imidazole-2-carbonyl]amino]-2-chloro-benzoyl]piperazine-1-carbonyl]-1-methyl-piperidin-1-ium-1-yl]acetate]	–
231 nM	Cn1c(-c2cn(-c3ccc(N4CC[C@H](N)C4)cn3)nc2C(F)(F)F)cnc1C(=O)Nc1ccc(C(=O)N2CCN(C(=O)[C@H]3CC[N@+](CC(=O)O)(CC4CNC4)CC3)CC2)c(Cl)c1 [Example 202, cis-2-[4-[4-[4-[[5-[1-[5-[(3S)-3-aminopyrrolidin-1-yl]-2-pyridyl]-3-(trifluoromethyl)pyrazol-4-yl]-1-methyl-imidazole-2-carbonyl]amino]-2-chloro-benzoyl]piperazine-1-carbonyl]-1-(azetidin-3-ylmethyl)piperidin-1-ium-1-yl]acetic acid;formate]	–

Second part, the compound before the results:

Compound	IC90 [1]	IC90
Cn1c(-c2cn(-c3ccc4c(ccn4CC(N)=O)n3)nc2C(F)(F)F)cnc1C(=O)Nc1ccc(C(=O)N2CCN(C(=O)C3CC[N+](CC(=O)O)(CC4CNC4)CC3)CC2)c(Cl)c1 (stereo not drawn) [Example 199, cis-2-[4-[4-[4-[[5-[1-[1-(2-amino-2-keto-ethyl)pyrrolo[3,2-b]pyridin-5-yl]-3-(trifluoromethyl)pyrazol-4-yl]-1-methyl-imidazole-2-carbonyl]amino]-2-chloro-benzoyl]piperazine-1-carbonyl]-1-(azetidin-3-ylmethyl)piperidin-1-ium-1-yl]acetic acid. 1:1 2,2,2-trifluoroacetate]	–	308 nM
Cn1c(-c2cn(-c3cc4cc[nH]c4cn3)nc2C(F)(F)F)cnc1C(=O)Nc1ccc(C(=O)N2CCN(C(=O)[C@H]3CC[N@+](CC(=O)O)(CC4CNC4)CC3)CC2)c(Cl)c1 [Example 200, cis-2-[1-(azetidin-3-ylmethyl)-4-[4-[2-chloro-4-[[1-methyl-5-[1-(1H-pyrrolo[2,3-c]pyridin-5-yl)-3-(trifluoromethyl)pyrazol-4-yl]imidazole-2-carbonyl]amino]benzoyl]piperazine-1-carbonyl]piperidin-1-ium-1-yl]acetic acid. 1:1 2,2,2-trifluoroacetate]	400 nM	–
cis-2-[4-[4-[4-[[5-[1-(4-Amino-2-fluoro-phenyl)-3-(difluoromethyl) pyrazol-4-yl]-1-methyl-imidazole-2-carbonyl]amino]-2-chloro-benzoyl]piperazine-1-carbonyl]-1-(azetidin-3-ylmethyl)piperidin-1-ium-1-yl]acetic Acid;2,2,2-trifluoroacetate [Example 128]	–	358 nM

Source: US20250179066A1, “ZWITTERIONIC ANTIBACTERIAL COMPOUNDS” (Hoffmann-La Roche Inc., priority 2022, published 2025)
